Measurements: the supplement of paper PMC9663587

Compound: T1, CC(=O)c1c(C)c2cnc(Nc3ccc(N4CCN(CCOCCOCCOCCNC(=O)COc5cccc6c5C(=O)N(C5CCC(=O)NC5=O)C6=O)CC4)cn3)nc2n(C2CCCC2)c1=O [BSJ-03-123]
Assay: GR value, 72 h; higher = faster growth (1 = untreated, <0 = killing);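 further: breast cancer and non-malignant breast epithelial lines, nine half-log doses, viable cells counted by Hoechst and LIVE/DEAD dye imaging versus time-zero plates and DMSO controls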
Settings: 0.1 µM
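Wherever GR50, 72 h is given: breast cancer and non-malignant breast epithelial cell lines, Deep Dye Drop or Dye Drop imaging, nine half-log doses, GR normalized to time-zero plates and DMSO-only controls.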

Cell Line	GR value
MDAMB231	0.69 GR
MDAMB330	0.637 GR

Same assay, conditions: 0.3162 µM

Cell Line	GR value
MCF7	0.727 GR
MCF10A	0.708 GR
MCF12A	0.942 GR
MDAMB175VII	0.573 GR
MDAMB231	0.644 GR
MDAMB330	0.403 GR

Same assay, conditions: 1 µM

Cell Line	GR value
MCF7	0.604 GR
MCF10A	0.577 GR
MCF12A	0.883 GR
MDAMB175VII	0.378 GR
MDAMB231	0.466 GR
MDAMB330	0.337 GR

Same assay, conditions: 3.162 µM

Cell Line	GR value
MCF7	0.544 GR
MCF10A	0.502 GR
MCF12A	0.753 GR
MDAMB175VII	0.262 GR
MDAMB231	0.478 GR
MDAMB330	0.277 GR

Same assay, conditions: 10 µM

Cell Line	GR value
MCF7	-0.327 GR
MCF10A	-0.113 GR
MCF12A	0.126 GR
MDAMB175VII	0.0206 GR
MDAMB231	-0.156 GR
MDAMB330	-0.101 GR

Compound: T2, CN1CC[C@H](c2c(O)cc(O)c3c(=O)cc(-c4ccccc4Cl)oc23)[C@H](O)C1 [Flavopiridol]
Assay: as above
Settings: 0.0001 µM

Cell Line	GR value
MCF7	1.08 GR
MCF10A	1.01 GR
MCF12A	1.04 GR
MDAMB175VII	0.962 GR
MDAMB231	1.02 GR
MDAMB330	0.986 GR

Same assay, conditions: 0.0003162 µM

Cell Line	GR value
MCF7	0.929 GR
MCF10A	1.01 GR
MCF12A	0.977 GR
MDAMB175VII	1 GR
MDAMB231	1.03 GR
MDAMB330	0.935 GR

Same assay, conditions: 0.001 µM

Cell Line	GR value
MCF7	0.872 GR
MCF10A	1.03 GR
MCF12A	0.895 GR
MDAMB175VII	0.765 GR
MDAMB231	1 GR
MDAMB330	1.03 GR

Same assay, conditions: 0.003162 µM

Cell Line	GR value
MCF7	0.964 GR
MCF10A	1.03 GR
MCF12A	0.982 GR
MDAMB175VII	0.721 GR
MDAMB231	0.886 GR
MDAMB330	1.01 GR

Same assay, conditions: 0.01 µM

Cell Line	GR value
MCF7	0.873 GR
MCF10A	1.04 GR
MCF12A	0.961 GR
MDAMB175VII	0.675 GR
MDAMB231	0.858 GR
MDAMB330	0.911 GR

Same assay, conditions: 0.03162 µM

Cell Line	GR value
MCF7	0.834 GR
MCF10A	1.03 GR
MCF12A	0.949 GR
MDAMB175VII	0.748 GR
MDAMB231	0.866 GR
MDAMB330	0.85 GR

Same assay, conditions: 0.1 µM

Cell Line	GR value
MCF7	0.424 GR
MCF10A	0.822 GR
MCF12A	0.856 GR
MDAMB175VII	0.442 GR
MDAMB231	0.656 GR
MDAMB330	0.735 GR

Same assay, conditions: 0.3162 µM

Cell Line	GR value
MCF7	-0.258 GR
MCF10A	-0.322 GR
MCF12A	0.621 GR
MDAMB175VII	-0.175 GR
MDAMB231	0.152 GR
MDAMB330	0.285 GR

Same assay, conditions: 1 µM

Cell Line	GR value
MCF7	-0.272 GR
MCF10A	-0.67 GR
MCF12A	-0.121 GR
MDAMB175VII	-0.302 GR
MDAMB231	-0.434 GR
MDAMB330	-0.892 GR

Compound: CCc1cnn2c(NCc3ccc[n+]([O-])c3)cc(N3CCCC[C@H]3CCO)nc12
Assay: as above
Settings: 0.0001 µM

Cell Line	GR value
MCF7	1.02 GR
MCF10A	1.01 GR
MCF12A	1.03 GR
MDAMB175VII	1.09 GR
MDAMB231	0.921 GR
MDAMB330	1.02 GR

Same assay, conditions: 0.0003162 µM

Cell Line	GR value
MCF7	0.997 GR
MCF10A	1.01 GR
MCF12A	0.99 GR
MDAMB175VII	1.07 GR
MDAMB231	0.995 GR
MDAMB330	1.09 GR

Same assay, conditions: 0.001 µM

Cell Line	GR value
MCF7	0.979 GR
MCF10A	1.02 GR
MCF12A	1.03 GR
MDAMB175VII	1.14 GR
MDAMB231	0.966 GR
MDAMB330	1.09 GR

Same assay, conditions: 0.003162 µM

Cell Line	GR value
MCF7	0.967 GR
MCF10A	1.04 GR
MCF12A	1.03 GR
MDAMB175VII	1.23 GR
MDAMB231	0.93 GR
MDAMB330	1.08 GR

Same assay, conditions: 0.01 µM

Cell Line	GR value
MCF7	0.3 GR
MCF10A	0.958 GR
MCF12A	1.08 GR
MDAMB175VII	0.742 GR
MDAMB231	0.51 GR
MDAMB330	1.02 GR

Same assay, conditions: 0.03162 µM

Cell Line	GR value
MCF7	-0.247 GR
MCF10A	-0.188 GR
MCF12A	0.685 GR
MDAMB175VII	-0.651 GR
MDAMB231	-0.288 GR
MDAMB330	-0.513 GR

Same assay, conditions: 0.1 µM

Cell Line	GR value
MCF7	-0.276 GR
MCF10A	-0.226 GR
MCF12A	-0.289 GR
MDAMB175VII	-0.516 GR
MDAMB231	-0.361 GR

Same assay, conditions: 0.3162 µM

Cell Line	GR value
MCF7	-0.241 GR
MCF10A	-0.223 GR
MDAMB175VII	-0.49 GR
MDAMB231	-0.372 GR

Same assay, conditions: 1 µM

Cell Line	GR value
MCF7	-0.255 GR
MCF10A	-0.223 GR
MCF12A	-0.327 GR
MDAMB175VII	-0.497 GR
MDAMB231	-0.426 GR

Compound: C=CC(=O)Nc1ccc(C(=O)Nc2[nH]nc3c2CN(C(=O)N[C@H](CN(C)C)c2ccccc2)C3(C)C)cc1 [YKL-5-124]
Assay: as above
Settings: 0.001 µM

Cell Line	GR value
MCF7	0.557 GR
MCF10A	0.472 GR
MCF12A	0.573 GR
MDAMB175VII	0.0803 GR
MDAMB231	0.388 GR
MDAMB330	0.265 GR

Same assay, conditions: 0.003162 µM

Cell Line	GR value
MCF7	0.403 GR
MCF10A	0.235 GR
MCF12A	0.316 GR
MDAMB175VII	0.0736 GR
MDAMB231	0.284 GR
MDAMB330	0.245 GR

Same assay, conditions: 0.01 µM

Cell Line	GR value
MCF7	0.316 GR
MCF10A	0.149 GR
MCF12A	0.235 GR
MDAMB175VII	0.0488 GR
MDAMB231	0.2 GR
MDAMB330	0.149 GR

Same assay, conditions: 0.03162 µM

Cell Line	GR value
MCF7	0.266 GR
MCF10A	0.0788 GR
MCF12A	0.17 GR
MDAMB175VII	0.076 GR
MDAMB231	0.144 GR
MDAMB330	0.177 GR

Same assay, conditions: 0.1 µM

Cell Line	GR value
MCF7	0.18 GR
MCF10A	0.0321 GR
MCF12A	0.135 GR
MDAMB175VII	0.0075 GR
MDAMB231	0.101 GR
MDAMB330	0.133 GR

Same assay, conditions: 0.3162 µM

Cell Line	GR value
MCF7	0.0831 GR
MCF10A	0.0253 GR
MCF12A	0.153 GR
MDAMB175VII	0.118 GR
MDAMB231	0.0485 GR
MDAMB330	-0.0197 GR

Same assay, conditions: 1 µM

Cell Line	GR value
MCF7	0.131 GR
MCF10A	0.0094 GR
MCF12A	0.131 GR
MDAMB175VII	-0.0042 GR
MDAMB231	0.0611 GR
MDAMB330	0.0836 GR

Same assay, conditions: 3.162 µM

Cell Line	GR value
MCF7	0.0763 GR
MCF10A	-0.0385 GR
MCF12A	0.107 GR
MDAMB175VII	0.0879 GR
MDAMB231	0.0322 GR
MDAMB330	0.0626 GR

Same assay, conditions: 10 µM

Cell Line	GR value
MCF7	-0.269 GR
MCF10A	-0.153 GR
MCF12A	0.0273 GR
MDAMB175VII	-0.754 GR
MDAMB231	-0.182 GR
MDAMB330	-0.732 GR

Compound: CCOc1cc2ncc(C#N)c(Nc3ccc(OCc4ccccn4)c(Cl)c3)c2cc1NC(=O)/C=C/CN(C)C [Neratinib/HKI272]
Assay: not given
Settings: not given

Cell Line	GR50, 72 h
MCF7	1.26 µM
MCF10A	0.102 µM
MCF12A	0.422 µM
MDAMB175VII	0.00127 µM
MDAMB231	1.43 µM
MDAMB330	0.00221 µM

Compound: CN(C)C/C=C/C(=O)Nc1ccc(O[C@@H]2CCC[C@@H](Nc3ncc(Cl)c(-c4c[nH]c5ccccc45)n3)C2)cc1 [BSJ-01-175]
Assay: not given
Settings: not given

Cell Line	GR50, 72 h
MCF7	0.006 µM
MCF10A	1.46 µM
MCF12A	4.32 µM
MDAMB175VII	0.00586 µM
MDAMB231	0.0118 µM
MDAMB330	0.00635 µM

Compound: COc1ccc2c(c1)[C@]1(C[C@H]1c1ccc3c(/C=C/c4ccc(CN5C[C@@H](C)O[C@@H](C)C5)cc4)n[nH]c3c1)C(=O)N2
Assay: not given
Settings: not given

Cell Line	GR50, 72 h
MCF7	0.00197 µM
MCF10A	0.00588 µM
MCF12A	0.0103 µM
MDAMB175VII	0.00391 µM
MDAMB231	0.00366 µM
MDAMB330	0.00542 µM

Compound: CN1CCN(CCOc2cc(OC3CCOCC3)c3c(Nc4c(Cl)ccc5c4OCO5)ncnc3c2)CC1 [Saracatinib/AZD0530]
Assay: not given
Settings: not given

Cell Line	GR50, 72 h
MCF7	0.577 µM
MCF10A	4.83 µM
MCF12A	9.02 µM
MDAMB175VII	0.0646 µM
MDAMB231	2.33 µM
MDAMB330	1.2 µM

Compound: T1, BSJ-03-123
Assay: not given
Settings: not given

Cell Line	GR50, 72 h
MCF7	1.42 µM
MCF10A	1.09 µM
MCF12A	5.35 µM
MDAMB175VII	0.301 µM
MDAMB231	0.731 µM
MDAMB330	0.297 µM

Compound: CN(C)C/C=C/C(=O)Nc1ccc(C(=O)Nc2cccc(Nc3ncc(Cl)c(-c4c[nH]c5ccccc45)n3)c2)cc1 [THZ1]
Assay: not given
Settings: not given

Cell Line	GR50, 72 h
MCF7	0.0224 µM
MCF10A	0.0723 µM
MCF12A	0.15 µM
MDAMB175VII	0.0271 µM
MDAMB231	0.0662 µM
MDAMB330	0.00836 µM

Compound: CNCc1ccc(-c2[nH]c3cc(F)cc4c3c2CCNC4=O)cc1 [Rucaparib]
Assay: not given
Settings: not given

Cell Line	GR50, 72 h
MCF7	> 10 µM
MCF10A	> 10 µM
MCF12A	> 10 µM
MDAMB175VII	> 10 µM
MDAMB231	> 10 µM
MDAMB330	8.69 µM

Compound: T2, Flavopiridol
Assay: not given
Settings: not given

Cell Line	GR50, 72 h
MCF7	0.0847 µM
MCF10A	0.152 µM
MCF12A	0.38 µM
MDAMB175VII	0.0523 µM
MDAMB231	0.139 µM
MDAMB330	0.232 µM

Compound: CC1=CN2C(=O)C=C(N=C2C(=C1)C(C)NC3=CC=CC=C3)N4CCOCC4 [TGX221]
Assay: not given
Settings: not given

Cell Line	GR50, 72 h
MCF7	> 10 µM
MCF10A	> 10 µM
MCF12A	> 10 µM
MDAMB175VII	> 10 µM
MDAMB231	> 10 µM
MDAMB330	> 10 µM

Compound: CN(C)CC[C@H](CSc1ccccc1)Nc1ccc(S(=O)(=O)NC(=O)c2ccc(N3CCN(Cc4ccccc4-c4ccc(Cl)cc4)CC3)cc2)cc1[N+](=O)[O-] [ABT-737]
Assay: not given
Settings: not given

Cell Line	GR50, 72 h
MCF7	> 10 µM
MCF10A	> 10 µM
MCF12A	> 10 µM
MDAMB175VII	4.58 µM
MDAMB231	3.03 µM
MDAMB330	2.07 µM
